Measured values: patent US9957267B2, “Somatostatin modulators and uses thereof” (Crinetics Pharmaceuticals, Inc., priority 2015, dated 2018)
Read-outs that look alike come from different tables or passages of the source.

Experiments:
Assay type in all cases: cell-based
[1] = molecular target: T1, SSTR4 (Homo sapiens, UniProt P31391); assay: cAMP functional agonist assay, CHO cells expressing SSTR4
T1 construct: expressed in transfected cells
Method: (§1) Chinese hamster ovary (CHO) cells stably expressing one of the six human or rodent somatostatin receptor subtypes are grown to 85-100% confluence on standard tissue culture dishes in F12-Ham's growth media (Hyclone) with following additives: 10% donor calf serum (Hyclone), 200 U/mL penicillin (Hyclone), 200 μg/mL streptomycin (Hyclone), 20 mM HEPES (Hyclone), 200 μg/mL hygromycin Hyclone.
(§2) General overview: All SSTR subtypes are Gi coupled G-protein coupled receptors (GPCRs) that lead to decreases in intracellular cyclic AMP (cAMP) when activated by an agonist. […] One example of an intracellular cAMP assay is described below.

[2] = molecular target: T2, human somatostatin receptor subtype 2a (Homo sapiens, UniProt P30874); assay: cAMP assay for SSTR2a agonists (HTRF cAMP kit, NKH-477 stimulated); settings: CHO cells stably expressing human SSTR2a, 1.6 μM NKH-477
T2 construct: expressed in transfected cells
Method: as §1
(§3) General overview: All SSTR subtypes are Gi coupled G-protein coupled receptors (GPCRs) that lead to decreases in intracellular cyclic AMP (cAMP) when activated by an agonist. Therefore, measurement of intracellular cAMP levels can be used to assess whether compounds of the invention are agonists of SSTR subtypes (John Kelly, Troy Stevens, W. Joseph Thompson, and Roland Seifert, Current Protocols in Pharmacology, 2005, 2.2.1-2.2). One example of an intracellular cAMP assay is described below.
Four days prior to the assay, 5000 Chinese hamster ovary (CHO) cells stably expressing the human somatostatin receptor subtype 2a are plated in each well of a 96-well tissue culture plate (Nest Biotech Cell, flat bottom with low evaporation tissue culture treated; Polystyrene; Non-Pyrogenic) in F12-Ham's media (100 μL/well) supplemented with 200 μg/mL of hygromycin. Incubate at 37 C, 5% CO2, 95% humidity for four days. The cells should reach full confluence. On the day of the assay, various dilutions of the compounds of the invention are prepared in assay buffer (HRTF cAMP kit, Cisbio) in the presence of 1.6 μM NKH-477 (a water-soluble forskolin derivative) and 50 μL of the dilutions are added to the cultured cells and incubated for 20 minutes at 37° C. […] 50 μL of lysis buffer (HRTF cAMP kit, Cisbio) is added to each well and incubated at room temperature for 30 minutes, after which 150 μL assay buffer is added to each well. In a 384-well plate (Grenier, 784-080), 10 μL of assay mixture is added to 10 μL of developing mixture, containing cAMP detection and visualization antibodies are added and the assay is allowed incubate for 1-24 hours at room temperature. The intracellular cAMP concentrations are then measured using a commercially available detection kit (for example, the cAMP HTRF kit, Cisbio). The measured intracellular cAMP concentrations are plotted vs. the concentration of the compounds of the invention and the EC50 of the compounds are calculated using standard methods.

[3] = molecular target: SSTR3 (UniProt P32745); assay: cAMP functional agonist assay, CHO cells expressing SSTR3; settings: CHO cells stably expressing SSTR3, cAMP
Method: as §1, §3

[4] = molecular target: T3, SSTR5 (Homo sapiens, UniProt P35346); assay: cAMP functional agonist assay, CHO cells expressing SSTR5; settings: CHO cells stably expressing SSTR5, cAMP
T3 construct: expressed in transfected cells
Method: as §1, §3

[5] = molecular target: T4, SSTR1 (Homo sapiens, UniProt P30872); assay: cAMP functional agonist assay, CHO cells expressing SSTR1
T4 construct: expressed in transfected cells
Method: as §1, §2

[6] = CHO cells stably expressing SSTR4, cAMP, read-out: SSTR4 EC50

T3 sequence (P35346 whole entry): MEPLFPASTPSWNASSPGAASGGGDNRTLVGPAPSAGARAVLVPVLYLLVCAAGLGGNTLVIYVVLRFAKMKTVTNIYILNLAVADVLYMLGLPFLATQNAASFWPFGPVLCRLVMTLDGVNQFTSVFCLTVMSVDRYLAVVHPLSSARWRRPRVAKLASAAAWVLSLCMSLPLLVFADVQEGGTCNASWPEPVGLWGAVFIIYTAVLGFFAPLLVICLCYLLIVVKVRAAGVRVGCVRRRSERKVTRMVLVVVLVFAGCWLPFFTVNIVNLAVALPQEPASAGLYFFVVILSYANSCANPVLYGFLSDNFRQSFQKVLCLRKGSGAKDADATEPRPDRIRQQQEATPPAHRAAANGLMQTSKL
T2 sequence (P30874 whole entry): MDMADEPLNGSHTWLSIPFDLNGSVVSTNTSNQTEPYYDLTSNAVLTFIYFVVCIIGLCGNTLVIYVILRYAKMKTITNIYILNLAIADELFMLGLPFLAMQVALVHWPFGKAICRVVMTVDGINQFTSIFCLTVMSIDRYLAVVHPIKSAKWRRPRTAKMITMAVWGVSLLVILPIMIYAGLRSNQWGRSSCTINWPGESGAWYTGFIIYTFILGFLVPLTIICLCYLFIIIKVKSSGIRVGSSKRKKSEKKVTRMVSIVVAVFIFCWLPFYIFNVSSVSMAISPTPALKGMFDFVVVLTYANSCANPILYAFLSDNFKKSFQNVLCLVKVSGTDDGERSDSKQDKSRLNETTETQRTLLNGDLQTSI
Sequence of SSTR3 (P32745 whole entry): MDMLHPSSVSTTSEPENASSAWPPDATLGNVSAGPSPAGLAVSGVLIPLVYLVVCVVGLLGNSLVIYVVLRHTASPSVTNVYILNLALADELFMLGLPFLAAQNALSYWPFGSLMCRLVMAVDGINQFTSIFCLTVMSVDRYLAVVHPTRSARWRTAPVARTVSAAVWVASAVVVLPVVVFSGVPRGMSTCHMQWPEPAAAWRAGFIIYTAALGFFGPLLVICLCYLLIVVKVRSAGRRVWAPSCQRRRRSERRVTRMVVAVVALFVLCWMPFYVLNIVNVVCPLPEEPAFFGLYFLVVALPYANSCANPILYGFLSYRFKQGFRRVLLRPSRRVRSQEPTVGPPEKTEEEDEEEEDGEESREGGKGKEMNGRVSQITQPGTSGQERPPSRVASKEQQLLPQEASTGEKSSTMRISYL
T4 sequence (P30872 whole entry): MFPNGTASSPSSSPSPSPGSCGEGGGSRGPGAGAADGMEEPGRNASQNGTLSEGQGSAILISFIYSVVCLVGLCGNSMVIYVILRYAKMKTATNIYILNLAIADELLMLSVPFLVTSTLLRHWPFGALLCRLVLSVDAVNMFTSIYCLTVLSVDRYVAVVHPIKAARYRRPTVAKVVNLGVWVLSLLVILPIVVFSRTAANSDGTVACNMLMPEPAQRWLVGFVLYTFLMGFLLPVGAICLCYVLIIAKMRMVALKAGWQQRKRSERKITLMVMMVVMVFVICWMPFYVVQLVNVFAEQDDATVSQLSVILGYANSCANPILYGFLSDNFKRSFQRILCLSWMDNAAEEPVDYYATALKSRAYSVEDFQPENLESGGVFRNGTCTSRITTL
T1 sequence (P31391 whole entry): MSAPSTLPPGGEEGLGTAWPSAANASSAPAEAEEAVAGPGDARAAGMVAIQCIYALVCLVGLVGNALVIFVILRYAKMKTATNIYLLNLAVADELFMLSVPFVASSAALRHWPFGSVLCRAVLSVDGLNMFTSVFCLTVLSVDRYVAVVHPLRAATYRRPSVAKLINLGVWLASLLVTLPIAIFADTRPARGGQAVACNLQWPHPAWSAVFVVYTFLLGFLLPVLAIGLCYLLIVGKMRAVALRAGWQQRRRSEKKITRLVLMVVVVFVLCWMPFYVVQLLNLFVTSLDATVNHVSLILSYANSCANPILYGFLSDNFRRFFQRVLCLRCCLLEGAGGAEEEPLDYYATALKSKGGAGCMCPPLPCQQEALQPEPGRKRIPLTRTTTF

| EC50 [1, 6] [nM] | EC50 [2] [nM] | EC50 [3] [nM] | EC50 [4] [nM] | EC50 [5] [nM] | EC50 [1] [nM] | Molecule |
| --- | --- | --- | --- | --- | --- | --- |
| < 100 | < 100 | < 100 | – | – | – | COc1cccc(-c2cnc3ncn(-c4cccc(O)c4)c(=O)c3c2CN(C)CC2CCCCN2)c1 (stereo not shown) [Compound A-23, 3-(3-hydroxyphenyl)-6-(3-methoxyphenyl)-5-{[methyl(piperidin-2-ylmethyl)amino]methyl}-3H,4H-pyrido[2,3-d]pyrimidin-4-one] |
| < 100 | < 100 | < 100 | – | – | – | Cc1cc(Cl)cc(-c2cnc3ncn(-c4cc(O)cc(C#N)c4)c(=O)c3c2CN(C)C[C@@H]2CCCN2)c1 [Compound A-71, 6-(3-methyl-5-chlorophenyl)-3-(3-cyano-5-hydroxyphenyl)-5-({methyl[(2S)-pyrrolidin-2-ylmethyl]amino}methyl)-3H,4H-pyrido[2,3-d]pyrimidin-4-one] |
| < 100 | 100 to 10000 | – | – | – | – | CC(C)c1cccc(-c2cnc3ncn(-c4cccc(O)c4)c(=O)c3c2CN(C)CC2CCCCN2)c1 (stereo not shown) [Compound A-22, 3-(3-hydroxyphenyl)-5-{[methyl(piperidin-2-ylmethyl)amino]methyl}-6-[3-(propan-2-yl)phenyl]-3H,4H-pyrido[2,3-d]pyrimidin-4-one] |
| < 100 | < 100 | 100 to 10000 | – | – | – | CCN(CCN)Cc1c(-c2cc(C)cc(Cl)c2)cnc2nc(C)n(-c3cc(O)cc(F)c3)c(=O)c12 [Compound A-67, 5-{[(2-aminoethyl)(ethyl)amino]methyl}-6-(3-chloro-5-methylphenyl)-3-(3-fluoro-5-hydroxyphenyl)-2-methyl-3H,4H-pyrido[2,3-d]pyrimidin-4-one] |
| – | – | < 100 | > 10000 | 100 to 10000 | < 100 | Cc1cc(C)cc(-c2cnc3ncn(-c4cc(C)cc(O)c4)c(=O)c3c2CN(C)C[C@@H]2CCCN2)c1 [Compound A-44, 6-(3,5-dimethylphenyl)-3-(3-hydroxy-5-methylphenyl)-5-({methyl[(2S)-pyrrolidin-2-ylmethyl]amino}methyl)-3H,4H-pyrido[2,3-d]pyrimidin-4-one] |
| – | – | 100 to 10000 | > 10000 | 100 to 10000 | < 100 | Cc1cc(F)cc(-c2cnc3ncn(-c4cccc(O)c4)c(=O)c3c2CN(C)C[C@@H]2CCCN2)c1 [Compound A-36, 6-(3-fluoro-5-methylphenyl)-3-(3-hydroxyphenyl)-5-({methyl[(2S)-pyrrolidin-2-ylmethyl]amino}methyl)-3H,4H-pyrido[2,3-d]pyrimidin-4-one] |
| – | – | < 100 | 100 to 10000 | 100 to 10000 | < 100 | CN(Cc1c(-c2cc(F)cc(Cl)c2)cnc2ncn(-c3cccc(O)c3)c(=O)c12)C[C@@H]1CCCN1 [Compound A-35, 6-(3-chloro-5-fluorophenyl)-3-(3-hydroxyphenyl)-5-({methyl[(2S)-pyrrolidin-2-ylmethyl]amino}methyl)-3H,4H-pyrido[2,3-d]pyrimidin-4-one] |

The remaining lines, values behind:

| Molecule | EC50 [1, 6] [nM] | EC50 [2] [nM] | EC50 [3] [nM] | EC50 [4] [nM] | EC50 [5] [nM] | EC50 [1] [nM] |
| --- | --- | --- | --- | --- | --- | --- |
| 3-[5-({[(2S)-2-aminobutyl](methyl)amino}methyl)-6-(3,5-dimethylphenyl)-4-oxo-3H,4H-pyrido[2,3-d]pyrimidin-3-yl]-5-fluorobenzamide [Compound A-64] | 100 to 10000 | < 100 | 100 to 10000 | 100 to 10000 | – | – |
| Cc1cc(Cl)cc(-c2cnc3ncn(-c4cc(O)cc(OC(F)(F)F)c4)c(=O)c3c2CN(C)C[C@@H]2CCCN2)c1 [Compound A-52, 6-(3-chloro-5-methylphenyl)-3-[3-hydroxy-5-(trifluoromethoxy)phenyl]-5-({methyl[(2S)-pyrrolidin-2-ylmethyl]amino}methyl)-3H,4H-pyrido[2,3-d]pyrimidin-4-one] | < 100 | < 100 | 100 to 10000 | > 10000 | – | – |
| Cc1cc(C)cc(-c2cnc3ncn(-c4cccc(O)c4)c(=O)c3c2CN(C)CCNCc2ccccc2)c1 [Compound A-6, 5-({[2-(benzylamino)ethyl](methyl)amino}methyl)-6-(3,5-dimethylphenyl)-3-(3-hydroxyphenyl)-3H,4H-pyrido[2,3-d]pyrimidin-4-one] | 100 to 10000 | 100 to 10000 | – | > 10000 | – | – |
| Cc1cc(CO)cc(-c2cnc3ncn(-c4cccc(O)c4)c(=O)c3c2CN(C)C[C@@H]2CCCN2)c1 [Compound A-37, 6-[3-(hydroxymethyl)-5-methylphenyl]-3-(3-hydroxyphenyl)-5-({methyl[(2S)-pyrrolidin-2-ylmethyl]amino}methyl)-3H,4H-pyrido[2,3-d]pyrimidin-4-one] | < 100 | < 100 | 100 to 10000 | > 10000 | – | – |
| Cc1c(F)cccc1-c1cnc2ncn(-c3cccc(O)c3)c(=O)c2c1CN(C)CC1CCCCN1 (stereo not shown) [Compound A-26, 6-(3-fluoro-2-methylphenyl)-3-(3-hydroxyphenyl)-5-{[methyl(piperidin-2-ylmethyl)amino]methyl}-3H,4H-pyrido[2,3-d]pyrimidin-4-one] | < 100 | < 100 | < 100 | 100 to 10000 | – | – |
| Cc1ccccc1-c1cnc2ncn(-c3cccc(O)c3)c(=O)c2c1CN(C)CC1CCCCN1 (stereo not shown) [Compound A-20, 3-(3-hydroxyphenyl)-5-{[methyl(piperidin-2-ylmethyl)amino]methyl}-6-(2-methylphenyl)-3H,4H-pyrido[2,3-d]pyrimidin-4-one] | < 100 | 100 to 10000 | 100 to 10000 | > 10000 | – | – |
| Cc1cc(C)cc(-c2cnc3ncn(-c4cccc(C#N)c4)c(=O)c3c2CN(C)C[C@@H]2CCCN2)c1 [Compound A-42, 3-[6-(3,5-dimethylphenyl)-5-({methyl[(2S)-pyrrolidin-2-ylmethyl]amino}methyl)-4-oxo-3H,4H-pyrido[2,3-d]pyrimidin-3-yl]benzonitrile] | – | – | 100 to 10000 | > 10000 | 100 to 10000 | < 100 |
| Cc1cc(C)cc(-c2cnc3ncn(-c4cc(F)cc(C#N)c4)c(=O)c3c2CN(C)C[C@@H]2CCCN2)c1 [Compound A-46, 3-[6-(3,5-dimethylphenyl)-5-({methyl[(2S)-pyrrolidin-2-ylmethyl]amino}methyl)-4-oxo-3H,4H-pyrido[2,3-d]pyrimidin-3-yl]-5-fluorobenzonitrile] | < 100 | 100 to 10000 | 100 to 10000 | – | – | – |
| CN(Cc1c(-c2cccc3ccccc23)cnc2ncn(-c3cccc(O)c3)c(=O)c12)CC1CCCCN1 (stereo not shown) [Compound A-69, 3-(3-hydroxy-phenyl)-5-[(methyl-piperidin-2-ylmethyl-amino)-methyl]-6-naphthalen-1-yl-3H-pyrido[2,3-d]pyrimidin-4-one] | < 100 | < 100 | < 100 | – | – | – |
| Cc1cc(C)cc(-c2cnc3ncn(-c4cccc(O)c4)c(=O)c3c2CN(C)C[C@H]2CCCCN2)c1 [Compound A-14, 6-(3,5-dimethylphenyl)-3-(3-hydroxyphenyl)-5-({methyl[(2R)-piperidin-2-ylmethyl]amino}methyl)-3H,4H-pyrido[2,3-d]pyrimidin-4-one] | – | – | < 100 | > 10000 | > 10000 | < 100 |
| Cc1cc(C)cc(-c2cnc3ncn(-c4cccc(O)c4)c(=O)c3c2CN(CCN)Cc2ccccc2)c1 [Compound A-5, 5-{[(2-aminoethyl)(benzyl)amino]methyl}-6-(3,5-dimethylphenyl)-3-(3-hydroxyphenyl)-3H,4H-pyrido[2,3-d]pyrimidin-4-one] | < 100 | 100 to 10000 | 100 to 10000 | > 10000 | – | – |
| Cc1cc(Cl)cc(-c2cnc3ncn(-c4cccc(C(N)=O)c4)c(=O)c3c2CN(C)C[C@@H]2CCCN2)c1 [Compound A-31, 3-[6-(3-chloro-5-methylphenyl)-5-({methyl[(2S)-pyrrolidin-2-ylmethyl]amino}methyl)-4-oxo-3H,4H-pyrido[2,3-d]pyrimidin-3-yl]benzamide] | < 100 | < 100 | 100 to 10000 | – | – | – |
